Converted amounts (≈) assume the structure as drawn.
Key:
[1] = system: Enterococcus sp.; experiment: in vitro antibacterial evaluation, MIC by broth dilution; type: cell-based; details: broth dilution, 18 hours at 35° C.
Summary of the method: (§1)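 MIC = lowest antibiotic concentration preventing visible growth; inoculum 5×10^5 CFU/mL; drug range 64-0.06 μg/mL; Muller-Hinton II […]; NCCLS M7-A2 guidance.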

[2] = system: Staphylococcus sp.; experiment: as above; type: cell-based; details: broth dilution, 18 hours at 35° C.
Summary of the method: as §1

[3] = system: Escherichia coli; experiment: as above; type: cell-based; details: 18 hours at 35° C.
Summary of the method: as §1

[4] = system: Streptococcus sp.; experiment: as above; type: cell-based; details: broth dilution, 18 hours at 35° C.
Summary of the method: as §1

[5] = system: Staphylococcus aureus-SMITH (GC 4543); experiment: acute lethal infection in mice; type: in vivo; details: acute lethal infection, female CD-1 mice, intraperitoneal challenge, intravenous 30 min. after infection, 7 day survival
Summary of the method: (§2)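 Protocol: bacteria suspended in trypticase soy broth or hog gastric mucin injected ip into female CD-1 mice at a level killing untreated controls in 24-48 hr; compound given iv in saline or 5% dextrose 30 min post-challenge; five mice per dose; ED50 derived from pooled 7 day survival of three runs.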

[6] = system: Enterococcus faecalis (GC 6189); experiment: acute lethal infection in mice; type: in vivo; details: female CD-1 mice, intraperitoneal challenge, intravenous 30 min. after infection, 7 day survival
Summary of the method: as §2

CC(c1ccccc1)C1NC(=O)CNC(=O)C(CO)NC(=O)C(C(O)C2CNC(=N)N2C2OC(CO)C(O)C(O)C2O)NC(=O)C(C(O)C2CNC(=N)N2)NC(=O)C(Cc2ccc(OC3OC(CO)C(OC4OC5COC(CC6CCN(C(=O)OCc7ccccc7)CC6)OC5C(O)C4O)C(O)C3O)cc2)NC1=O (stereo not drawn) [Example 113, Cyclo[glycyl-β-methylphenylalanyl-O-[4-O-[4,6-O-[2-[1-[(phenylmethoxy)carbonyl]piperidin-4-yl]ethylidene]hexopyranosyl]hexopyranosyl]tyrosyl-3-(2-iminoimidazolidin-4-yl)seryl-3-(3-hexopyranosyl-2-iminoimidazolidin-4-yl)serylseryl]]
MIC Enterococcus avium (GC 4558) ([1]; Enterococcus avium (GC 4558)): 2 µg/mL (≈ 1.3 µM)
MIC Enterococcus faecalis (ATCC 29212) ([1]; Enterococcus faecalis (ATCC 29212)): 2 µg/mL (≈ 1.3 µM)
MIC Enterococcus faecalis (GC 2242) ([1]; Enterococcus faecalis (GC 2242)): 4 µg/mL (≈ 2.6 µM)
MIC Enterococcus faecalis (GC 2691) ([1]; Enterococcus faecalis (GC 2691)): 4 µg/mL (≈ 2.6 µM)
MIC Enterococcus faecalis (GC 3059) ([1]; Enterococcus faecalis (GC 3059)): 2 µg/mL (≈ 1.3 µM)
MIC Enterococcus faecalis (GC 4552) ([1]; Enterococcus faecalis (GC 4552)): 2 µg/mL (≈ 1.3 µM)
MIC Enterococcus faecalis (GC 4553) ([1]; Enterococcus faecalis (GC 4553)): 2 µg/mL (≈ 1.3 µM)
MIC Enterococcus faecalis (GC 4554) ([1]; Enterococcus faecalis (GC 4554)): 2 µg/mL (≈ 1.3 µM)
MIC Enterococcus faecalis (GC 6189) ([1]; Enterococcus faecalis (GC 6189)): 2 µg/mL (≈ 1.3 µM)
MIC Enterococcus faecium (GC 2243) ([1]; Enterococcus faecium (GC 2243)): 2 µg/mL (≈ 1.3 µM)
MIC Enterococcus faecium (GC 4556) ([1]; Enterococcus faecium (GC 4556)): 2 µg/mL (≈ 1.3 µM)
MIC Enterococcus faecium (GC 4557) ([1]; Enterococcus faecium (GC 4557)): 2 µg/mL (≈ 1.3 µM)
MIC Enterococcus faecalis (ATCC 29212) ([1]; strain ATCC 29212): 2 µg/mL (≈ 1.3 µM)
MIC Enterococcus faecalis (GC 2242) ([1]; strain GC 2242): 4 µg/mL (≈ 2.6 µM)
MIC Enterococcus faecium (GC 2243) ([1]; strain GC 2243): 2 µg/mL (≈ 1.3 µM)
MIC Enterococcus faecalis (GC 2691) ([1]; strain GC 2691): 4 µg/mL (≈ 2.6 µM)
MIC Enterococcus faecalis (GC 3059) ([1]; strain GC 3059): 2 µg/mL (≈ 1.3 µM)
MIC Enterococcus faecalis (GC 4552) ([1]; strain GC 4552): 2 µg/mL (≈ 1.3 µM)
MIC Enterococcus faecalis (GC 4553) ([1]; strain GC 4553): 2 µg/mL (≈ 1.3 µM)
MIC Enterococcus faecalis (GC 4554) ([1]; strain GC 4554): 2 µg/mL (≈ 1.3 µM)
MIC Enterococcus faecium (GC 4556) ([1]; strain GC 4556): 2 µg/mL (≈ 1.3 µM)
MIC Enterococcus faecium (GC 4557) ([1]; strain GC 4557): 2 µg/mL (≈ 1.3 µM)
MIC Enterococcus avium (GC 4558) ([1]; strain GC 4558): 2 µg/mL (≈ 1.3 µM)
MIC Enterococcus faecalis (GC 6189) ([1]; strain GC 6189): 2 µg/mL (≈ 1.3 µM)
MIC Coagulase Negative Staphylococcus (GC 4547) [2]: 1 µg/mL (≈ 0.65 µM)
MIC Coagulase Negative Staphylococcus (GC 4548) [2]: 0.5 µg/mL (≈ 0.325 µM)
MIC Coagulase Negative Staphylococcus (GC 4549) [2]: 1 µg/mL (≈ 0.65 µM)
MIC Coagulase Negative Staphylococcus (GC 4551) [2]: 1 µg/mL (≈ 0.65 µM)
MIC Coagulase Negative Staphylococcus (GC 6257) [2]: 0.5 µg/mL (≈ 0.325 µM)
MIC Staphylococcus aureus (ATCC 29213) [2]: 1 µg/mL (≈ 0.65 µM)
MIC Staphylococcus aureus (GC 1131) [2]: 2 µg/mL (≈ 1.3 µM)
MIC Staphylococcus aureus (GC 3051) [2]: 1 µg/mL (≈ 0.65 µM)
MIC Staphylococcus aureus (GC 3053) [2]: 1 µg/mL (≈ 0.65 µM)
MIC Staphylococcus aureus (GC 4541) [2]: 1 µg/mL (≈ 0.65 µM)
MIC Staphylococcus aureus (GC 4542) [2]: 1 µg/mL (≈ 0.65 µM)
MIC Staphylococcus aureus (GC 4544) [2]: 2 µg/mL (≈ 1.3 µM)
MIC Staphylococcus aureus (GC 4545) [2]: 1 µg/mL (≈ 0.65 µM)
MIC Staphylococcus aureus-SMITH (GC 4543) [2]: 1 µg/mL (≈ 0.65 µM)
MIC Staphylococcus haemolyticus (GC 4546) [2]: 1 µg/mL (≈ 0.65 µM)
MIC Staphylococcus aureus (GC 1131) ([2]; inoculum 5×10^5 CFU/mL, strain GC 1131): 2 µg/mL (≈ 1.3 µM)
MIC Staphylococcus aureus (ATCC 29213) ([2]; strain ATCC 29213): 1 µg/mL (≈ 0.65 µM)
MIC Staphylococcus aureus (GC 3051) ([2]; strain GC 3051): 1 µg/mL (≈ 0.65 µM)
MIC Staphylococcus aureus (GC 3053) ([2]; strain GC 3053): 1 µg/mL (≈ 0.65 µM)
MIC Staphylococcus aureus (GC 4541) ([2]; strain GC 4541): 1 µg/mL (≈ 0.65 µM)
MIC Staphylococcus aureus (GC 4542) ([2]; strain GC 4542): 1 µg/mL (≈ 0.65 µM)
MIC Staphylococcus aureus (GC 4544) ([2]; strain GC 4544): 2 µg/mL (≈ 1.3 µM)
MIC Staphylococcus aureus (GC 4545) ([2]; strain GC 4545): 1 µg/mL (≈ 0.65 µM)
MIC Staphylococcus haemolyticus (GC 4546) ([2]; strain GC 4546): 1 µg/mL (≈ 0.65 µM)
MIC Coagulase Negative Staphylococcus (GC 4547) ([2]; strain GC 4547): 1 µg/mL (≈ 0.65 µM)
MIC Coagulase Negative Staphylococcus (GC 4548) ([2]; strain GC 4548): 0.5 µg/mL (≈ 0.325 µM)
MIC Coagulase Negative Staphylococcus (GC 4549) ([2]; strain GC 4549): 1 µg/mL (≈ 0.65 µM)
MIC Coagulase Negative Staphylococcus (GC 4551) ([2]; strain GC 4551): 1 µg/mL (≈ 0.65 µM)
MIC Coagulase Negative Staphylococcus (GC 6257) ([2]; strain GC 6257): 0.5 µg/mL (≈ 0.325 µM)
MIC Staphylococcus aureus-SMITH (GC 4543) ([2]; strain SMITH GC 4543): 1 µg/mL (≈ 0.65 µM)
MIC Escherichia coli (ATCC 25922) ([3]; strain ATCC 25922): 32 µg/mL (≈ 20.8 µM)
MIC Escherichia coli (GC 4559) ([3]; strain GC 4559): 32 µg/mL (≈ 20.8 µM)
MIC Escherichia coli (GC 4560) ([3]; strain GC 4560): 1 µg/mL (≈ 0.65 µM)
MIC Streptococcus agalactiae (GC 4564) ([4]; Streptococcus agalactiae (GC 4564)): 0.12 µg/mL (≈ 0.078 µM)
MIC Streptococcus pneumoniae (ATCC 6301) ([4]; Streptococcus pneumoniae (ATCC 6301)): <0.06 µg/mL
MIC Streptococcus pneumoniae (GC 1894) ([4]; Streptococcus pneumoniae (GC 1894)): <0.06 µg/mL
MIC Streptococcus pneumoniae (GC 4565) ([4]; Streptococcus pneumoniae (GC 4565)): <0.06 µg/mL
MIC Streptococcus pyogenes (GC 4563) ([4]; Streptococcus pyogenes (GC 4563)): <0.06 µg/mL
MIC Streptococcus pneumoniae (ATCC 6301) ([4]; strain ATCC 6301): <0.06 µg/mL
MIC Streptococcus pneumoniae (GC 1894) ([4]; strain GC 1894): <0.06 µg/mL
MIC Streptococcus pyogenes (GC 4563) ([4]; strain GC 4563): <0.06 µg/mL
MIC Streptococcus agalactiae (GC 4564) ([4]; strain GC 4564): 0.12 µg/mL (≈ 0.078 µM)
MIC Streptococcus pneumoniae (GC 4565) ([4]; strain GC 4565): <0.06 µg/mL
median effective dose (ED50), Staphylococcus aureus-SMITH (GC 4543) [5]: 0.26 mg/kg
median effective dose (ED50), Enterococcus faecalis (GC 6189) [6]: 1.04 mg/kg

From US6914045B2, “Glycopeptide antibiotics” (Wyeth Holdings Corporation, priority 2001, dated 2005)
